US20220127258A1, “AROMATIC RING OR HETEROAROMATIC RING COMPOUNDS, PREPARATION METHOD THEREFOR AND MEDICAL USE THEREOF” (The National Institutes of Pharmaceutical R&D Co., Ltd., priority 2019, published 2022)

Target: T1, FXR (Homo sapiens, UniProt Q96RI1)
T1 sequence (Q96RI1 262-486 limits assumed): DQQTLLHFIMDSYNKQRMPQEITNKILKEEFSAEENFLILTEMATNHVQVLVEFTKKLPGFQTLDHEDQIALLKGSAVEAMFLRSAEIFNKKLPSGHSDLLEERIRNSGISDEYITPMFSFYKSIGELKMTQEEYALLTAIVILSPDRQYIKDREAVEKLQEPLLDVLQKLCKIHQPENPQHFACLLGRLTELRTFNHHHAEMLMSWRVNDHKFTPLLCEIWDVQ
Test: FXR agonistic activity, luciferase assay
Assay type: cell-based
Details: luc2P-GAL4-HEK293 cells transfected with pBIND-FXR, 24 hours
Procedure: The FXR agonistic activity of the compound of the present invention was evaluated using the luciferase assay.
The experimental process comprises the follows. The luc2P-GAL4-HEK293 stably transfected cell line (the cell line was established by transfecting pGL4.35 plasmid with HEK293 cells which was then subjected to Hygromycin B screening. The cell contained 9×GAL4 UAS and firefly luciferase reporter gene. The ligand-activated LBD-GAL4 DBD fusion protein can enter the nucleus to bind to 9×GAL4 UAS and activate the transcription of the downstream luciferase reporter gene) was transferred to a 96-well plate with […] per well. pBIND-FXR (Which was constructed by inserting FXR-LBD into pFN26A-BIND hRluc-neo Flexi® vector. The plasmid was 7.5 kb in size, Amp resistant, contained FXR-LBD, and can express FXR-LBD and GAL4 DBD fusion proteins) was transfected using X-tremeGENE HP transfection reagent. The ratio of plasmid to transfection reagent was 1 μg: 2 μl. The specific amount was 100 ng of plasmid and 0.2 μl of X-tremeGENE HP transfection reagent per well. The test compounds (the highest concentration of each compound was 30 μM, 3-fold dilution, a total of 10 concentrations) were added to induce the expression of luciferase. After 24 hours, the 96-well plate containing the test cells was taken out from the incubator, and placed at room temperature. Dual-Glo® Luciferase Reagent with the volume equal to the volume of the medium in the well (80 μl/well) was added to each well and mixed well. The plate was incubated at room temperature for 20 minutes to allow the cells to be fully lysed. All the liquid in the plate was transferred to a 96-well microtiter plate, and the firefly luciferin value was measured with a multi-function plate reader (manufacturer: Bio Tek (USA); model: Synergy4). Dual-Glo® a Stop & Glo® Reagent with the volume equal to the volume of the initial medium (80 μl/well) was added to each well and mixed well. The plate was incubated at room temperature for 10 minutes, and the renilla luciferin value was measured. The measurement order of renilla fluorescence should be the same as that of firefly fluorescence. Curve fitting and EC50 calculation were conducted using GraphPad Prism 5 software by nonlinear regression method. The fitting equation is: Y=Bottom+(Top−Bottom)/(1+10^((Log EC50−X)*HillSlope)), wherein EC50 refers to the semi-effective concentration, Top refers to the maximum effect, Bottom refers to the blank effect, and HillSlope refers to the slope.

Row | SMILES | EC50 [nM]
1 | O=C(O)c1ccc(-c2noc(N3[C@@H]4CC[C@H]3C[C@@H](OCc3c(-c5c(Cl)cccc5Cl)noc3C3CC3)C4)n2)cc1 [Example 1, 4-(5-((1R,3r,5S)-3-((5-cyclopropyl-3-(2,6-dichlorophenyl)-isoxazol-4-yl)methoxy)-8-azabicyclo[3.2.1]octan-8-yl)-1,2,4-oxadiazol-3-yl)benzoic acid] | < 25
2 | O=C(O)c1ccc(-c2noc(N3[C@@H]4CC[C@H]3C[C@@H](OCc3c(-c5c(Cl)cccc5Cl)noc3C3CC3)C4)n2)cc1Cl [Example 2, 2-chloro-4-(5-((1R,3r,5S)-3-((5-cyclopropyl-3-(2,6-dichlorophenyl)isoxazol-4-yl)methoxy)-8-azabicyclo[3.2.1]octan-8-yl)-1,2,4-oxadiazol-3-yl)benzoic acid] | < 25
3 | O=C(O)c1cccc(-c2noc(N3[C@@H]4CC[C@H]3C[C@@H](OCc3c(-c5c(Cl)cccc5Cl)noc3C3CC3)C4)n2)n1 [Example 3] | < 25
4 | O=C(O)c1ccc(-c2noc(N3[C@@H]4CC[C@H]3C[C@@H](OCc3c(-c5c(Cl)cccc5Cl)noc3C3CC3)C4)n2)s1 [Example 4] | < 25
5 | Cc1cc(C(=O)O)ccc1-c1noc(N2[C@@H]3CC[C@H]2C[C@@H](OCc2c(-c4c(Cl)cccc4Cl)noc2C2CC2)C3)n1 [Example 5] | < 25
6 | O=C(O)c1cccc(-c2noc(N3[C@@H]4CC[C@H]3C[C@@H](OCc3c(-c5c(Cl)cccc5Cl)noc3C3CC3)C4)n2)c1 [Example 6] | < 25
7 | Cc1cc(-c2noc(N3[C@@H]4CC[C@H]3C[C@@H](OCc3c(-c5c(Cl)cccc5Cl)noc3C3CC3)C4)n2)ccc1C(=O)O [Example 7] | < 25
8 | O=C(O)c1cccc(-c2nnc(N3[C@@H]4CC[C@H]3C[C@@H](OCc3c(-c5c(Cl)cccc5Cl)noc3C3CC3)C4)o2)n1 [Example 10, 6-(5-((1R,3r,5S)-3-((5-cyclopropyl-3-(2,6-dichlorophenyl)isoxazol-4-yl)methoxy)-8-azabicyclo[3.2.1]octan-8-yl)-1,3,4-oxadiazol-2-yl)pyridine-2-carboxylic acid] | 100 to 500
9 | COc1cc(-c2nnc(N3[C@@H]4CC[C@H]3C[C@@H](OCc3c(-c5c(Cl)cccc5Cl)noc3C3CC3)C4)o2)ccc1C(=O)O [Example 13] | < 25
10 | O=C(O)c1cccc(-c2nnc(N3[C@@H]4CC[C@H]3C[C@@H](OCc3c(-c5c(Cl)cccc5Cl)noc3C3CC3)C4)o2)c1 [Example 15] | < 25
11 | O=C(O)c1ccc(-c2nnc(N3[C@@H]4CC[C@H]3C[C@@H](OCc3c(-c5c(Cl)cccc5Cl)noc3C3CC3)C4)o2)c(F)c1 [Example 16, 4-(5-((1R,3r,5S)-(3-((5-cyclopropyl-3-(2,6-dichlorophenyl)isoxazol-4-yl))methoxy)-8-azabicyclo[3.2.1]octan-8-yl)-1,3,4-oxadiazol-2-yl)-3-fluorobenzoic acid] | 50 to 100
12 | Cc1cc(-c2nnc(N3[C@@H]4CC[C@H]3C[C@@H](OCc3c(-c5c(Cl)cccc5Cl)noc3C3CC3)C4)o2)ccc1C(=O)O [Example 17] | < 25
13 | O=C(O)c1ccc(-c2nnc(N3[C@@H]4CC[C@H]3C[C@@H](OCc3c(-c5c(Cl)cccc5Cl)noc3C3CC3)C4)o2)cn1 [Example 18, 5-(5-((1R,3r,5S)-3-((5-cyclopropyl-3-(2,6-dichlorophenyl)isoxazol-4-yl)methoxy)-8-azabicyclo[3.2.1]octan-8-yl)-1,3,4-oxadiazol-2-yl)pyridine-carboxylic acid] | 100 to 500
14 | O=C(O)c1ccc(-c2nnc(N3[C@@H]4CC[C@H]3C[C@@H](OCc3c(-c5c(Cl)cccc5Cl)noc3C3CC3)C4)o2)nc1 [Example 19, 6-(5-((1R,3r,5S)-3-((5-cyclopropyl-3-(2,6-dichlorophenyl)isoxazol-4-yl)methoxy)-8-azabicyclo[3.2.1]octan-8-yl)-1,3,4-oxadiazol-2-yl)nicotinic acid] | > 500
15 | O=C(O)c1cc(-c2nnc(N3[C@@H]4CC[C@H]3C[C@@H](OCc3c(-c5c(Cl)cccc5Cl)noc3C3CC3)C4)o2)cs1 [Example 21] | 100 to 500
16 | O=C(O)c1ccc(-c2nnc(N3[C@@H]4CC[C@H]3C[C@@H](OCc3c(-c5ccccc5OC(F)(F)F)noc3C3CC3)C4)o2)cc1Cl [Example 23, 2-chloro-4-(5-((1R,3r,5S)-3-((5-cyclopropyl-3-(2-(trifluoromethoxy)phenyl)isoxazol-4-yl)methoxy)-8-azabicyclo[3.2.1]octan-8-yl)-1,3,4-oxadiazol-2-yl)benzoic acid] | 100 to 500
17 | O=C(O)c1cccc(-c2nnc(N3[C@@H]4CC[C@H]3C[C@@H](OCc3c(-c5ccccc5OC(F)(F)F)noc3C3CC3)C4)o2)n1 [Example 24, 6-(5-((1R,3r,5S)-3-((5-cyclopropyl-3-(2-(trifluoromethoxy)phenyl)isoxazol-4-yl)methoxy)-8-azabicyclo[3.2.1]octan-8-yl)-1,3,4-oxadiazol-2-yl)pyridine-2-carboxylic acid] | > 500
18 | O=C(O)c1ccc(-c2nnc(N3[C@@H]4CC[C@H]3C[C@@H](OCc3c(-c5ccccc5OC(F)(F)F)noc3C3CC3)C4)o2)s1 [Example 25] | 100 to 500
19 | Cc1cc(C(=O)O)ccc1-c1nnc(N2[C@@H]3CC[C@H]2C[C@@H](OCc2c(-c4ccccc4OC(F)(F)F)noc2C2CC2)C3)o1 [Example 27] | < 25
20 | Cc1cc(-c2nnc(N3[C@@H]4CC[C@H]3C[C@@H](OCc3c(-c5ccccc5OC(F)(F)F)noc3C3CC3)C4)o2)ccc1C(=O)O [Example 30] | < 25
21 | O=C(O)c1ccc(-c2nnc(N3[C@@H]4CC[C@H]3C[C@@H](OCc3c(-c5ccccc5OC(F)(F)F)noc3C3CC3)C4)o2)cn1 [Example 31, 5-(5-((1R,3r,5S)-3-((5-cyclopropyl-3-(2-(trifluoromethoxy)phenyl)isoxazol-4-yl)methoxy)-8-azabicyclo[3.2.1]octan-8-yl)-1,3,4-oxadiazol-2-yl)pyridine-carboxylic acid] | 100 to 500
22 | O=C(O)c1ccc(-c2nnc(N3[C@@H]4CC[C@H]3C[C@@H](OCc3c(-c5ccccc5OC(F)(F)F)noc3C3CC3)C4)o2)nc1 [Example 32] | > 500
23 | O=C(O)c1csc(-c2nnc(N3[C@@H]4CC[C@H]3C[C@@H](OCc3c(-c5ccccc5OC(F)(F)F)noc3C3CC3)C4)o2)c1 [Example 33, 5-(5-((1R,3r,5S)-3-((5-cyclopropyl-3-(2-(trifluoromethoxy)phenyl)isoxazol-4-yl)methoxy)-8-azabicyclo[3.2.1]octan-8-yl)-1,3,4-oxadiazol-2-yl)thiophene-3-carboxylic acid] | 100 to 500
24 | O=C(O)c1cc(-c2nnc(N3[C@@H]4CC[C@H]3C[C@@H](OCc3c(-c5ccccc5OC(F)(F)F)noc3C3CC3)C4)o2)cs1 [Example 34] | > 500
